These results are taken from PMC10593608, “The catalytic role of glutathione transferases in heterologous anthocyanin biosynthesis” (Nature Catalysis, 2023).

In one data set the target is T1, VvGST2 (Vitis vinifera, UniProt A0T2X7).
T1 construct: gene GST2; expressed in E. coli from pET-28b-based plasmid, clarified lysate
T1 sequence (A0T2X7 1-214): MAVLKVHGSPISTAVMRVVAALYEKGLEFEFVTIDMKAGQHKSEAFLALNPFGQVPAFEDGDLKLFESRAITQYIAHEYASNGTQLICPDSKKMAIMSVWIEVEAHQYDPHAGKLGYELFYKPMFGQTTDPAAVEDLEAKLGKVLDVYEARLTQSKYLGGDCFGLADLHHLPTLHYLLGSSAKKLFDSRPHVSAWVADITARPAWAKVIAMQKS
As to the kind of experiment: GSH-transferase assay, A340nm, clarified E. coli lysate. The data set is classed as biochemical. Conditions: 1 mM CDNB, 1 mM GSH, 50 mM Tris pH 7.5, 30 °C.

For the next data set, the target named is T2, PhAN9 (Petunia x hybrida, UniProt O24261).
T2 construct: expressed in E. coli from pET-28b-based plasmid, clarified lysate
T2 sequence (O24261 1-232): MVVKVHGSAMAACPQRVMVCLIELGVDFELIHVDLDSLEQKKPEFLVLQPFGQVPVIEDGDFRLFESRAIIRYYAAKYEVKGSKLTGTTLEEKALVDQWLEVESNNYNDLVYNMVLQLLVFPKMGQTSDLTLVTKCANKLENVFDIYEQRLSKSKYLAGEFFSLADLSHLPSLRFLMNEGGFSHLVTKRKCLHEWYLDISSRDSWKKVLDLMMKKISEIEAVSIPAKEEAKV
The description is as above. Conditions: 1 mM CDNB, 1 mM GSH, 50 mM Tris pH 7.5, 30 °C. In kind it is biochemical.

The target in another data set is T3, AtGSTF2 (Arabidopsis thaliana, UniProt P46422).
T3 construct: gene GSTF2; expressed in E. coli from pET-28b-based plasmid, clarified lysate
T3 sequence (P46422 1-212): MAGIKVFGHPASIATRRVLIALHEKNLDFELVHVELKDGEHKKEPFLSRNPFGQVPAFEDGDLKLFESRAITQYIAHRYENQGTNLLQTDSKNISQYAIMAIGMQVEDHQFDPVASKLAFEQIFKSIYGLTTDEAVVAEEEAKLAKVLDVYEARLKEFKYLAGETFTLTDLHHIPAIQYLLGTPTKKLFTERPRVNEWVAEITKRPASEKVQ
The description is as above. In kind it is biochemical. Conditions: 1 mM CDNB, 1 mM GSH, 50 mM Tris pH 7.5, 30 °C.

The next data set has as its target T4, ZmBZ2 (Zea mays, UniProt P50472).
T4 construct: gene BZ2; expressed in E. coli from pET-28b-based plasmid, clarified lysate
T4 sequence (P50472 1-236): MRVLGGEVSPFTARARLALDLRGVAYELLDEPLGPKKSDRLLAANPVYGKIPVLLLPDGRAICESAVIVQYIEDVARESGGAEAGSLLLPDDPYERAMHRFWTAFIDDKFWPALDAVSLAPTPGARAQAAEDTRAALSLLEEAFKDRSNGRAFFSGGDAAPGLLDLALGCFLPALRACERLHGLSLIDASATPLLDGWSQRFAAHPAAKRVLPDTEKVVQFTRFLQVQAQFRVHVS
The data set is described as above. The data set is classed as biochemical. Conditions: 1 mM CDNB, 1 mM GSH, 50 mM Tris pH 7.5, 30 °C.

In data set [1] the target is T5, AtTT19 (Arabidopsis thaliana, UniProt Q9FE46).
T5 construct: gene GSTF12; expressed in E. coli from pET-28b-based plasmid, clarified lysate
T5 sequence (Q9FE46 1-214): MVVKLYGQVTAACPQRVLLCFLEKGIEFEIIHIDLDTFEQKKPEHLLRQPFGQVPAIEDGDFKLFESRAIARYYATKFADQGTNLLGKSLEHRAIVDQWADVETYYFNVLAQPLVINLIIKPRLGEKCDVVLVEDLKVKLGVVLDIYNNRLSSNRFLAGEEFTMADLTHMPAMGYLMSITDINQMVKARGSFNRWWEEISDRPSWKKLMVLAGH
The data set is described as above. In kind it is biochemical. Conditions: 1 mM CDNB, 1 mM GSH, 50 mM Tris pH 7.5, 30 °C.

Data set [2] concerns the target T5, AtTT19. As to the kind of experiment: cyanidin formation by clarified E. coli lysate expressing the GST. In kind it is biochemical. Conditions: 20 μM GSH, 100 mM MOPSO pH 6.2, 30 °C.
Another data set has as its target T6, PtGSTF8 (Populus trichocarpa, UniProt B9MWW0).
T6 construct: gene POPTR_017G138800; full length, expressed in E. coli from pET-28b-based pANT35, GSTrap purified, apo (GSH removed with DTT)
T6 sequence (B9MWW0 1-214): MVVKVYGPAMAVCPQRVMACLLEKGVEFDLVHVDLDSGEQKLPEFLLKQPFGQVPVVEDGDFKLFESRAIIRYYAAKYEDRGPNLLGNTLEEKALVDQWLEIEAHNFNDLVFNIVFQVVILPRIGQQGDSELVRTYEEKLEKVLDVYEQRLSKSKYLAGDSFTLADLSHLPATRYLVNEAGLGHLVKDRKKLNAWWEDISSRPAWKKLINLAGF
As to the kind of experiment: X-ray crystal structure, […] Å. The data set is classed as binding. Conditions: ternary complex with GSH; H-site; substrate analogue.

Substrate in data set [3]: Oc1cc(O)c2c(c1)O[C@H](c1ccc(O)c(O)c1)C(O)(O)[C@H]2O
The data set can be described thus: cyanidin formation at A580nm, 96-well plate, Michaelis-Menten. The data set is classed as biochemical, Populus trichocarpa. Conditions: GSH cofactor, 100 mM MOPSO pH 6.2, 30 °C, ascorbate, Fe(II), ultrafiltered substrate, apparent.

Consider `O=[N+]([O-])c1ccc(Cl)c([N+](=O)[O-])c1` [compound 5, 1-chloro-2,4-dinitrobenzene], for which the “GSH-transferase assay, A340nm, clarified E. coli lysate” value on VvGST2 is “all investigated GSTs were confirmed to be solubly and functionally produced”; on PhAN9, “all investigated GSTs were confirmed to be solubly and functionally produced”; at AtGSTF2, “all investigated GSTs were confirmed to be solubly and functionally produced”; at ZmBZ2, “all investigated GSTs were confirmed to be solubly and functionally produced”; at AtTT19 [1] it was “all investigated GSTs were confirmed to be solubly and functionally produced”.
Regarding `Oc1cc(O)c2c(c1)O[C@H](c1ccc(O)c(O)c1)C(O)(O)[C@H]2O` [compound 4], the “cyanidin formation by clarified E. coli lysate expressing the GST” value on AtTT19 [2] is “arGSTs from maize (ZmBZ2), arabidopsis (AtTT19) and grapevine (VvGST4)”.
For `Oc1cc(O)c2c(c1)O[C@@H](c1ccc(O)c(O)c1)[C@H](O)C2` [compound 12, (−)-catechin], the “X-ray crystal structure, 1.09 Å” value on PtGSTF8 is “crystal structure of PtGSTF8 as a ternary complex with GSH and the substrate analogue (−)-catechin”.

B1: PtGSTF8 (Populus trichocarpa) (protein)
chain: T6 sequence (B9MWW0 1-214)
notes: full length, expressed in E. coli from pET-28b-based pANT35, GSTrap purified, apo (GSH removed with DTT)
For orientation: Km means the substrate concentration at which the rate is half of its maximum. The kcat is the maximal rate divided by the concentration of active sites. For B1, in data set [3], the Km was found to be 147 ± 8 µM and the kcat was 0.118 s⁻¹.
